Measured values from patent US12595269B2, “Morpholine-like monoamine releasers” (Solvonis Therapeutics Ireland Holdings Limited, priority 2022, dated 2026).

assay: In vitro intrinsic clearance in human liver microsomes; assay type: in vitro ADME; conditions: pH 7.4, read-out: Intrinsic clearance (μL/min/mg protein) human
Procedure: Methods and Procedure: The general procedure involves incubating test compounds with liver microsomes and subsequently detecting the compounds to determine intrinsic clearance. Clearance was estimated from the rate of depletion k (min−1), the volume of the incubation V (mL), and the amount of microsomal proteins in the incubation M (mg). Intrinsic clearance is defined by the following equation: Clint k*V/M.
Values for CLint are expressed as μL/min/mg protein. Verapamil and dextromethorphan were used as positive controls for CYP3A4 and CYP2D6 isoforms, respectively, to confirm metabolic activity.
Positive control and compounds for testing were dissolved in an appropriate solvent to obtain a 10 mM stock solution, which was diluted to achieve a final working solution, as detailed in the above table. Stock solutions were usually prepared at 10 mM DMSO, whereas working solutions were made by adding 5 μL 10 mM DMSO+995 μL MeOH. However, this concentration can be varied, e.g., when the test item is not soluble in the selected solvent.
Prior to experimentation, frozen liver microsomes were thawed in a water bath at 37° C. and kept on ice until use. The microsomes were then diluted with 50 mM potassium phosphate buffer pH 7.4 to a protein concentration of 0.56 mg/mL. To prepare test and control items in final incubation conditions, 5 μL of test compound and positive control working solutions were added to 445 μL of microsomes incubation mixture at 0.56 mg/mL and 50 μL of regenerating system.
As it relates to the automated incubation procedure for microsomes incubation, the following procedure was followed: • 1. 150 μL of quenching solution (ACN containing an appropriate Internal Standard, i.e. Rolipram and Diclofenac for positive and negative ion mode, respectively) was manually dispensed or dispensed by using the Hamilton system in each well of 96 deep well 1 mL plates. • 2. 800-1000 μL-aliquots of NADPH regenerating system were pre-warmed at 37° C. for 5 minutes. • 3. 5 μL of 50 μM test items and control were added to 445 μL of the 0.56 mg/mL microsomes solution, and the incubation mixture was pre-warmed in a 96 deep well 2 mL plate (incubation plate) at 37° C. for 5 minutes. • 4. […] Metabolic stability was calculated from the ratio of peak area of the remaining test or control item with internal standard versus time. • 9. […] The integrated peak areas of the test and control items at the selected time points were divided by the respective peak areas of the IS, and the percent of parent remaining was calculated by normalizing the peak area ratio of parent to IS at 0 min. Observed rate constant (kobs) for parent degradation was calculated by determining the slope of the line of the graph of the natural log of percentage parent remaining versus time of incubation. […]

| SMILES | microsomal CLint at 0.5 µM [µL/min/mg] |
| --- | --- |
| Clc1ccc([C@]23CN[C@H](CO2)C3)cc1Cl (single isomer, unassigned) [516A] | 31 |
| CNC(C)Cc1ccc2c(c1)OCO2 (stereo not shown) [MDMA, reference compound] | 30 |
| Clc1ccc(C23CNC(CO2)C3)cc1Cl (stereo not shown) [522A, 1-(3,4-dichlorophenyl)-2-oxa-5-azabicyclo[2.2.1]heptane] | 10 |
| Clc1ccc([C@@]23CN[C@@H](CO2)C3)cc1Cl (single isomer, unassigned) [518A] | 40 |
